Measurements reported in patent US12582646B2, “Method for treating drug or alcohol dependency” (AETHER THERAPEUTICS INC., priority 2019, dated 2026).

Columns and labels:
[1] = system: peripheral opioid receptors; assay: peripherally selective activity (internal results); type: in vivo
Source text: The invention embodies usage of any of these compounds or derivatives or metabolites thereof. […] In combinations, any opioid analgesic is a feasible component, embodied in the combination patents mentioned above. An example is a combination product of oxycodone or hydrocodone with 6beta-naltrexol.

mu opioid receptor [2] = biological target: mu opioid receptor (Homo sapiens, UniProt P35372); settings: cited from earlier work
Sequence of mu opioid receptor (Homo sapiens, UniProt P35372) (P35372 whole entry, species assumed): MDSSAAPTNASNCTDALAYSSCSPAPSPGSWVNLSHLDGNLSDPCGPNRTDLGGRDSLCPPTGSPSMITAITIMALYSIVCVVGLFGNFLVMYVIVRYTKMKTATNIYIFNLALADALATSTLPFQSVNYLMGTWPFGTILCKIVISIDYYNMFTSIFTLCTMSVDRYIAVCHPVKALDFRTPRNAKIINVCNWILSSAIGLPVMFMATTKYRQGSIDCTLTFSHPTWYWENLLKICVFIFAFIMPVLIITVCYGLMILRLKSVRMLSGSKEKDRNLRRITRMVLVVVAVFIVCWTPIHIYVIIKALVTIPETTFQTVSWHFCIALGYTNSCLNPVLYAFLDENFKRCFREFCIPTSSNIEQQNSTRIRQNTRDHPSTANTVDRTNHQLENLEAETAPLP

mu opioid receptor [3] = assay: internal unpublished: co-administration with morphine or methadone, subsequent opioid withdrawal, guinea pigs; type: in vivo; settings: dose as low as 0.01 mg/kg given together with morphine or methadone
Source text: (§1) (See Corder G, Doolen S, Donahue R R, Winter M, Jutras B, He Y, Hu X, Wieskopf J S, Mogil J S, Storm D R, Wang Z J, McCarson K E, and Taylor B K, Constitutive μ-opioid receptor activity leads to long-term endogenous analgesia and dependence. Science 2013; 341,1394-1399; Corder G, Tawfik V L, Wang D, Sypek E I, Low S A, Dickinson J R, Sotoudeh C, Clark J D, Barres B A, Bohlen C J, Scherrer (2017). Loss of μ opioid receptor signaling in nociceptors, but not microglia, abrogates morphine tolerance without disrupting analgesia. Nat Med. 23:164-173; J. Oberdick, Y. L., M. A. Phelps, M. S. Yudovich, K. Schilling, and W. Sadee. Preferential delivery of an opioid antagonist to the fetal brain in pregnant mice. J. Pharmacol. Exp. Ther. 358: 22-30 (2016).

mu opioid receptor [4] = biological target: T1, mu opioid receptor (Mus musculus, UniProt P42866); assay: internal unpublished: co-administration with morphine or methadone, subsequent opioid withdrawal, mice; type: in vivo; settings: dose as low as 0.01 mg/kg given together with morphine or methadone
T1 construct: from tissue; host or cells: living mice (whole-animal pharmacology)
T1 sequence (P42866 whole entry): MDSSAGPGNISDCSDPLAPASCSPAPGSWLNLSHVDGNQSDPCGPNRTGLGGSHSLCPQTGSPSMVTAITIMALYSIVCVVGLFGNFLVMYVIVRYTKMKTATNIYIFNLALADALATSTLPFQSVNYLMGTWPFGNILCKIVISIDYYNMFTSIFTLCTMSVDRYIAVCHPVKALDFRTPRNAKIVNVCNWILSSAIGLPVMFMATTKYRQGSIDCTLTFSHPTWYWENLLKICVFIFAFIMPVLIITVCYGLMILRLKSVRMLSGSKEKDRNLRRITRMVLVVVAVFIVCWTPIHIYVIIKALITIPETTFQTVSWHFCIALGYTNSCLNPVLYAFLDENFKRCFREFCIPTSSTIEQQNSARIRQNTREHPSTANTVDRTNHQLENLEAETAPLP
Source text: as §1

oral bioavailability = type: in vivo; settings: value assumed for oral dosing
Method: This step applies to opioid use disorders. […] The recommended initial dose is 2 mg naltrexol orally (assuming ˜30% oral bioavailability; estimated dosage range 0.5-10 mg), once or twice daily for 2-4 days, followed by 6 mg once or twice daily for 4-8 days (estimated dosage range 2-20 mg twice daily). Step 1 is designed to suppress peripheral effects of the opioid drug with minimal peripheral withdrawal symptoms, and reverse at least partially opioid dependence.
Opioid antagonist maintenance with 6-beta-naltrexol may require 100 mg (dosage range 40-300 mg) per day orally (assuming 20-40% bioavailability). […] Ceasing opioid use altogether must be medically supervised for at least one year to determine the rate of recidivism.

mu opioid receptor [5] = biological target: T1, mu opioid receptor; settings: 0.02 mg/kg co-injected s.c. with 20 mg/kg morphine for several days, juvenile mice; cited from earlier work
[6] = biological target: peripheral and central opioid receptors; assay: blocking morphine iv effects (analgesia, slowing of bowel movement) in opioid naive subjects; type: in vivo, humans
Method: Recommended doses are 20 mg (range 10-80 mg) once or twice daily for 4-8 days, then 40 mg (range 20-120 mg) once or twice daily for 1-4 weeks, and if necessary, further escalation to 100 mg (range 40-300 mg) once or twice daily for maintenance. […] Dosing schedules can be facilitated by designing sustained release formulations as described in preceding incorporated patents.

[7] = system: peripheral and central opioid receptors; settings: methadone maintenance subjects, single intravenous dose 0.5-1 mg; cited from earlier work
[8] = in vivo; cited from earlier work
opioid receptors = settings: acutely morphine-dependent mice; cited from earlier work
[9] = system: rats habituated to high alcohol consumption; settings: acute; cited from earlier work
[10] = system: peripheral and central opioid receptors; assay: intravenous 6beta-naltrexol in methadone maintenance subjects
[11] = system: spontaneous opioid receptor activity; settings: opioid dependent mice, 24 hours after the last morphine dose; cited from earlier work
[12] = system: peripheral and central opioid receptors; settings: mice, given orally; cited from earlier work
[13] = 4 methadone replacement patients, IV doses up to 1 mg

In the case of `CC(=O)N[C@@H]1CC[C@@]2(O)[C@H]3Cc4ccc(O)c5c4[C@@]2(CCN3CC2CC2)[C@@H]1O5` [6beta-naltrexamide], the peripherally selective activity [1] is listed as “strong peripherally selective activity” and the “type of opioid antagonism” value (mu opioid receptor [2]) is listed as “neutral antagonism”.

With `Oc1ccc2c3c1O[C@H]1[C@H](O)CC[C@@]4(O)[C@@H](C2)N(CC2CC2)CC[C@]314` [6beta-naltrexol] the subsequent opioid withdrawal (mu opioid receptor [3]) was “reduces or prevents subsequent opioid withdrawal”, the subsequent opioid withdrawal (mu opioid receptor [4]) was “reduces or prevents subsequent opioid withdrawal” and the oral bioavailability (oral bioavailability; listed as 6-beta-naltrexol) was 20-40%. For the same molecule, the oral bioavailability (oral bioavailability; listed as naltrexol) was roughly 30%, the “naloxone-withdrawal jumping after co-injection with morphine” value (mu opioid receptor [5]) was “significantly reduced” and the “IC50 for blocking morphine induced slowing of bowel movement” value ([6]; iv) was roughly 3 mg. For the same molecule, the “block of analgesia caused by 10 mg morphine iv” value ([6]; single dose of 20 mg iv, opioid naive subjects) was “failed to block analgesia”, the central withdrawal symptoms [7] was “no central withdrawal symptoms” and the “effect on opioid induced constipation” value [7] was “can reverse opioid induced constipation”. The “half-life compared with typical opioid analgesics” value [8] was “longer half-life”, the “effect on naloxone induced withdrawal jumping” value (opioid receptors) was “prevent naloxone (inverse agonist) induced withdrawal jumping” and the “alcohol and sucrose intake” value [9] was “prevents both alcohol and sucrose intake acutely, but only at high doses”. For the same molecule, the “tolerated IV dose” value ([10]; 4 methadone replacement patients sensitive to 0.05 mg naloxone i.v.) was “up to 1 mg”, the bowel effect [10, 13] was “bowel movements” and the withdrawal symptoms [10, 13] was “some additional peripheral, but no central, withdrawal symptoms”.

In the case of `O=C1CC[C@@]2(O)[C@H]3Cc4ccc(O)c5c4[C@@]2(CCN3CC2CC2)[C@H]1O5` [naltrexone], the “withdrawal elicited by the antagonist” value [11] is listed as “robust withdrawal” and the “potency in blocking peripheral and central opioid analgesic effects” value [12] is listed as “equally potent”.
